Test results published in publication PMC3295651, “Delineation of the Pasteurellaceae-specific GbpA-family of glutathione-binding proteins” (BMC Biochemistry, 2011).

Assays:
Assay in all cases: Thermofluor thermal shift (Sypro orange)
Assay type in all cases: binding
GbpAHi = target: T1, GbpAHi (Haemophilus influenzae, UniProt P33950)
T1 construct: gene hbpA; soluble non-lipidated form; leader replaced by PelB; his-tag
Text: Thermofluor thermal shift (Sypro orange) on GbpAHi

hbpA = target: T2, hbpA (Actinobacillus pleuropneumoniae, UniProt A3N3U8, C22M); conditions: read-out: GbpAAp
T2 construct: soluble non-lipidated form; mature start at position 22; C-terminal his-tag; E. coli, pET20b
T2 sequence (A3N3U8 22-545 C22M): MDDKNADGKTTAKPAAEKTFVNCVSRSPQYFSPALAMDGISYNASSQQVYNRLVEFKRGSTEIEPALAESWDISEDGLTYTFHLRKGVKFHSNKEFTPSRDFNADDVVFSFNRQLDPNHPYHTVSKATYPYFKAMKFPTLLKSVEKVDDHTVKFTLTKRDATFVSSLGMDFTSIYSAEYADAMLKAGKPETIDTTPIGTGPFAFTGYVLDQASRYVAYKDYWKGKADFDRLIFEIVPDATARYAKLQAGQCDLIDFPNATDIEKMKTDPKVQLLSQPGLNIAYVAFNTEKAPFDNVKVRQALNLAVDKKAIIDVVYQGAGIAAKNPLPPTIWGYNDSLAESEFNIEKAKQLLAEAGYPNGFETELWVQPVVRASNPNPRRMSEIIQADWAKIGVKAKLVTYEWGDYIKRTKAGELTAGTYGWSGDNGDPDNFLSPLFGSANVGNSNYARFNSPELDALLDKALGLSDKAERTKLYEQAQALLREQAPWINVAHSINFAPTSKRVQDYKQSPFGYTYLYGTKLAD
Text: Thermofluor thermal shift (Sypro orange) on GbpAAp

GbpAHp = target: T3, GbpAHp (Glaesserella parasuis, UniProt B8F653)
T3 construct: gene hbpA; non-lipoprotein; leader replaced by PelB; his-tag
T3 sequence (B8F653 23-531): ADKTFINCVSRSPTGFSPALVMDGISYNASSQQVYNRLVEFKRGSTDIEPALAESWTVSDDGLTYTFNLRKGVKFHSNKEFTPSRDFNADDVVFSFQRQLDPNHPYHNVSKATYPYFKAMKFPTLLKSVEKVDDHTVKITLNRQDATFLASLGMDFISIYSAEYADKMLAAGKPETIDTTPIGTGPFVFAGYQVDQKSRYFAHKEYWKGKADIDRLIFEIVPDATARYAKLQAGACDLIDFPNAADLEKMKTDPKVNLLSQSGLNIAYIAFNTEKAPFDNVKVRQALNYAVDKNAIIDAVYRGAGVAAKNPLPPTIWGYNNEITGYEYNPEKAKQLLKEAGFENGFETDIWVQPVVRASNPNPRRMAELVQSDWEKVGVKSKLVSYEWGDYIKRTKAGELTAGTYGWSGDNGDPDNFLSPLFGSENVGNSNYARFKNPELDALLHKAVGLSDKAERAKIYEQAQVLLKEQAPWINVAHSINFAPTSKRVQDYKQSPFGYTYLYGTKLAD
Text: Thermofluor thermal shift (Sypro orange) on GbpAHp

T1 sequence (P33950 19-547): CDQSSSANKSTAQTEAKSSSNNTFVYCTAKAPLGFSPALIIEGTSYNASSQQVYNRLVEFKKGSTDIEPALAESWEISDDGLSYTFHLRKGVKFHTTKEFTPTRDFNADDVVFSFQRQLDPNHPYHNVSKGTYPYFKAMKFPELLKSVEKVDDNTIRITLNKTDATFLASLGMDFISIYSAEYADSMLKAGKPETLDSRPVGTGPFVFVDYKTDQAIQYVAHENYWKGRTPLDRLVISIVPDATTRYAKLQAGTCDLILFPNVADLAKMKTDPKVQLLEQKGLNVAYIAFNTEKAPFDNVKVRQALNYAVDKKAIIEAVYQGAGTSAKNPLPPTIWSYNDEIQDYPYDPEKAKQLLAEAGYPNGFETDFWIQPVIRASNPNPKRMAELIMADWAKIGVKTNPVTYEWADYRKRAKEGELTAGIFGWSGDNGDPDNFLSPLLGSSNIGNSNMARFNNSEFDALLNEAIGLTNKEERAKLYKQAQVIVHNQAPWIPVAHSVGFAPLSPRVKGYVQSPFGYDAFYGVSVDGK

## N[C@@H](CCC(=O)N[C@@H](CS)C(=O)NCC(=O)O)C(=O)O [GSH]
GbpAHi
  ΔTm at 1000 µM: 12.5 °C

## N[C@@H](CCC(=O)N[C@@H](CSSC[C@H](N)C(=O)O)C(=O)NCC(=O)O)C(=O)O [glutathione cysteine disulfide]
GbpAHi
  ΔTm at 1000 µM: 10 °C
hbpA
  ΔTm at 1000 µM: 6 °C
GbpAHp
  ΔTm at 1000 µM: 7 °C

## N[C@@H](CCC(=O)N[C@@H](CSN=O)C(=O)NCC(=O)O)C(=O)O [S-nitrosoglutathione]
GbpAHi
  ΔTm at 1000 µM: 7 °C
hbpA
  ΔTm at 1000 µM: 6.5 °C
GbpAHp
  ΔTm at 1000 µM: 9.5 °C

## CSC[C@H](NC(=O)CC[C@H](N)C(=O)O)C(=O)NCC(=O)O [S-methylglutathione]
GbpAHi
  ΔTm at 1000 µM: 10.5 °C
